Activity calls are given as the source filed them.
Assays:
[1] = Luminescence Cell-Based Dose Confirmation HTS to Identify Activators of 5'UTR Stem-Loop Driven Alpha-Synuclein mRNA Translation in H4 Neuroglioblastoma Cells. [Related pubchem assays: 1829 (Project Summary), 1814 (Primary HTS)]; type: functional
[2] = Luminescence Cell-Based Dose Response HTS to Identify Activators of Luciferase Translation or Activity in H4 […] Cells. [Related pubchem assays: 1829 (Project Summary), 1814 (Primary HTS)]; type: functional
[3] = system: H4; assay: Luminescence Cell-Based Dose Response HTS to Identify Activators of 5'UTR Stem-Loop Driven Prion Protein mRNA Translation in H4 Neuroglioblastoma Cells. [Related pubchem assays: 1829 (Project Summary), 1814 (Primary HTS)]; type: functional; conditions: Homo sapiens
[4] = microbe, parasite or virus in culture; type: functional; conditions: Mycobacterium tuberculosis
[5] = Luminescence Cell-Based Dose Retest to Confirm Inhibitors of Cancer Stem Cells. [Related pubchem assays (depositor defined):AID2717, AID2721]; type: functional; conditions: Homo sapiens
[6] = target: T1, Protein skinhead-1 (Caenorhabditis elegans, UniProt P34707); type: functional
T1 sequence (P34707 whole entry): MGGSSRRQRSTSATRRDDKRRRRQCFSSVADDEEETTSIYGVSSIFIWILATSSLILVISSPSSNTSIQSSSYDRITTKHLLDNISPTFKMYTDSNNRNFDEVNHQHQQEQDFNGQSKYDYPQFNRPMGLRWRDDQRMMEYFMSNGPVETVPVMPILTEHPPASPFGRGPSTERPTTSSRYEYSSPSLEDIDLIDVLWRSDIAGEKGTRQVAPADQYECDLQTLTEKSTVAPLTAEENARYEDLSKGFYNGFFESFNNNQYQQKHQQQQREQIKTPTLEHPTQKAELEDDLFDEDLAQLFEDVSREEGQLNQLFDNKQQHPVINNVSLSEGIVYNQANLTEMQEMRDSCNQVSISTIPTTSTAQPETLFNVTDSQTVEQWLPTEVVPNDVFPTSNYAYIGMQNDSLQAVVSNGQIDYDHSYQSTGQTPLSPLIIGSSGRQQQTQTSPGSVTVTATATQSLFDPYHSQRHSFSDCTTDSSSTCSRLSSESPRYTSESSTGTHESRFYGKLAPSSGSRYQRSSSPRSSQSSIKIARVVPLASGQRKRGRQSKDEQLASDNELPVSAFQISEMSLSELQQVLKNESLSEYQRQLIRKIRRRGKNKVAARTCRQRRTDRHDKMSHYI

[7] = system: P388; assay: cells; type: functional
[8] = system: P388/ADR; assay: cells; type: functional
[9] = system: SN12K1; assay: cells; type: functional; conditions: Homo sapiens
[10] = system: Streptococcus; assay: GAS UMAA2166 growth inhibition – luminescence, BacTiterGlo, counter-screen for streptokinase expression inhibitor project, dose response (AID 1915); type: functional, organism-based;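 further: potency for reduction of bacterial viability or growth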
[11] = system: Streptococcus sp. 'group A'; assay: Streptococcus pyogenes SK(-)GAS viability under kanamycin – luminescence, BacTiterGlo, confirmation, counter-screen for streptokinase expression inhibitor project, dose response (AID 1900); type: functional, organism-based
[12] = target: T2, Streptokinase A (Streptococcus pyogenes serotype M1, UniProt P10520); assay: viability-normalized secreted streptokinase activity reduction – plasminogen activation absorbance, OD405, dose response (AID 1914); type: functional, Streptococcus pyogenes M1 GAS;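 further: secreted streptokinase activity via plasminogen activation per viability signal from cell pellet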
T2 sequence (P10520 whole entry): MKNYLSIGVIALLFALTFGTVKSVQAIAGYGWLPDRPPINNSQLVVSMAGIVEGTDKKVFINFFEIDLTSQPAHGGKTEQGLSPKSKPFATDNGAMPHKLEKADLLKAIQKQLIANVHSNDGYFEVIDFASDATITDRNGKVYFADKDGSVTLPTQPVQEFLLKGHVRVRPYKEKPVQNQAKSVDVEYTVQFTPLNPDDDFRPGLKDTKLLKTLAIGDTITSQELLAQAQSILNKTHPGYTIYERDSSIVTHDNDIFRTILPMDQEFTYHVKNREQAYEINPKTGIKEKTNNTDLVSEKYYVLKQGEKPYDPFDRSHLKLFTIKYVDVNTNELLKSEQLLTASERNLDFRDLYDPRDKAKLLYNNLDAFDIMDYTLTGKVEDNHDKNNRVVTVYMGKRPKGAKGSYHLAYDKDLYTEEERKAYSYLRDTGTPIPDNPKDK

[13] = viability of PTEN-deleted HCT116 cells – cell-based, HCT116 PTEN knockout, dose response (AID 1047); type: functional;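 further: HCT116 colon tumor cells with PTEN knocked out; cells exposed to compound for 60 hours before readout; potency for loss of cell viability measured by luminescence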
[14] = viability of HCT116 lacking mutant beta-catenin – cell-based, human colon tumor, dose response (AID 1045); type: functional;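 further: HCT116 colon tumor cells with beta catenin knocked out; cells exposed to compound for 60 hours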
[15] = P. falciparum Dd2 growth inhibitors, dose response, SYBR Green, cherry-picked samples (AID 1159567); type: functional, cell-based

Cc1cccn2c(O)c(C(=O)NC3CCCCC3)c(=O)nc12
EC50 [1]: > 120 µM (not active)
EC50 [2]: > 120 µM (not active)
EC50 [3]: > 120 µM (not active)

Cc1cc(N2CCCCC2)n2ncc(-c3ccc(Cl)cc3)c2n1
CC50 [4]: > 40 µM (active)
AC50 [5]: 4.92 µM (active)

CC(C(=O)N1CCN(C)CC1)N1C(=O)c2ccccc2C1=O (configuration not stated)
IC50 [6]: > 100 µM (inactive)

CC(=O)c1ccc(NC(=O)COC(=O)c2c3c(nc4ccccc24)/C(=C\c2cccs2)CCC3)cc1
CC50 [4]: 12.4 µM (active)
AC50 [5]: 3.85 µM (active)

Cn1c(NC(=O)/C=C/c2ccccc2)cc(=O)n(C)c1=O
EC50 [1]: 14.9 µM (active)
EC50 [2]: 26.1 µM (active)
EC50 [3]: 68.7 µM (inconclusive)

O=C(COc1ccc(Br)cc1Cl)NC1CCCCC1
EC50 [1]: 0.174 µM (active)
EC50 [2]: 0.128 µM (inconclusive)

CC1=C(O)C(=O)[C@@H]2O[C@@H]2C1=O
GI50 ([7]; Mus musculus, P388): 0.542 µM (active)
GI50 ([8]; Mus musculus, P388/ADR): 1.09 µM (active)
GI50 [9]: 11.1 µM (inactive)

CC(=O)Nc1ccc(S(=O)(=O)N2CCN=C2SCc2ccc(C)cc2)cc1
EC50 [1]: 45 µM (active)
EC50 [10]: > 150 µM (not active)
EC50 [11]: > 150 µM (not active)
EC50 [2]: 48.2 µM (active)
EC50 [3]: 8.96 µM (active)
EC50 [12]: > 150 µM (not active)

CCOC(=O)c1c(NC(=O)CSc2nc3cc(OC)ccc3[nH]2)sc2c1CC(C)(C)NC2(C)C
CC50 [4]: 21.6 µM (active)

CC(C)c1nnc(NC(=O)CCC(=O)N2CCN(c3ccc(Cl)cc3)CC2)s1
CC50 [4]: > 40 µM (active)

Cc1ccc(Cn2nc(C)cc2C(=O)Nc2ccccc2Cl)cc1
EC50 [1]: 1.49 µM (active)
EC50 [2]: 21.3 µM (active)
EC50 [3]: 33.9 µM (active)

Clc1ccc(OCc2cnc(Cl)s2)cc1
IC50 [6]: 13.2 µM (active)

O=[N+]([O-])c1ccc2c(c1)nc1n2CCN(C2CCCCC2)C1
EC50 [1]: 17.6 µM (active)
EC50 [2]: 80.8 µM (active)

CCC(C(=O)Nc1cccc(S(=O)(=O)N(C)c2ccccc2)c1)c1ccccc1 (configuration not stated)
IC50 [6]: > 100 µM (inactive)

COC(=O)c1cccc(CC2(C)C(=O)Nc3ccc(OC(F)(F)F)cc32)c1 (configuration not stated)
IC50 [6]: 88.5 µM (inactive)

N#CC(OC1OC(COC2OC(CO)C(O)C(O)C2O)C(O)C(O)C1O)c1ccccc1 (configuration not stated)
GI50 ([7]; Mus musculus, P388): > 225 µM (inactive)
GI50 ([8]; Mus musculus, P388/ADR): > 225 µM (inactive)
GI50 [9]: > 225 µM (inactive)

COc1ccc2o/c(=N/c3cc(F)ccc3F)c(C(N)=O)cc2c1
EC50 [1]: > 120 µM (not active)
EC50 [2]: > 120 µM (not active)
EC50 [3]: > 120 µM (not active)

O=P1(Oc2ccc(Cl)cc2Cl)Oc2cc3ccccc3cc2O1
GI50 ([7]; Mus musculus, P388): 14 µM (inactive)
GI50 ([8]; Mus musculus, P388/ADR): 22.4 µM (inactive)
GI50 [9]: 59.4 µM (inactive)

Cc1c2cnccc2c(C)c2c1c1ccccc1n2CCCN
GI50 ([7]; Mus musculus, P388): 0.0931 µM (active)
GI50 ([8]; Mus musculus, P388/ADR): 0.157 µM (active)
GI50 [9]: 0.222 µM (active)

C=C1CC(OC)(C(O)C(=O)N[C@H]2OCO[C@H]3C2O[C@H](C[C@H](O)COC)C(C)(C)C3OC)O[C@H](C)[C@@H]1C (some centres not stated)
GI50 ([7]; Mus musculus, P388): < 0.00773 µM (active)
GI50 ([8]; Mus musculus, P388/ADR): < 0.00773 µM (active)
GI50 [9]: < 0.00773 µM (active)

CSCC[C@@H](NC(=O)[C@H](CC(C)C)NC(=O)C(Cc1cnc[nH]1)NC(=O)CNC(=O)[C@@H](NC(=O)[C@H](C)NC(=O)[C@H](Cc1c[nH]c2ccccc12)NC(=O)[C@H](CCC(N)=O)NC(=O)[C@@H](N)CC(N)=O)C(C)C)C(N)=O (some centres not stated)
GI50 ([7]; Mus musculus, P388): > 100 µM (inactive)
GI50 ([8]; Mus musculus, P388/ADR): > 100 µM (inactive)
GI50 [9]: > 100 µM (inactive)

NC(=O)c1csc(C2OC(CO)C(O)C2O)n1 (configuration not stated)
GI50 ([7]; Mus musculus, P388): 1.86 µM (inactive)
GI50 ([8]; Mus musculus, P388/ADR): 1.79 µM (inactive)
GI50 [9]: 77.8 µM (inactive)

Nc1ncn(C2OC(CO)C(O)C2O)c(=O)n1 (configuration not stated)
GI50 [7]: 0.452 µM (active)
GI50 ([7]; Mus musculus, P388): 0.348 µM (active)
GI50 [8]: 0.489 µM (active)
GI50 ([8]; Mus musculus, P388/ADR): 0.393 µM (active)

Cc1ccc(Nc2nc(/N=C/N(C)C)n[nH]2)cc1C
EC50 [1]: > 120 µM (not active)
EC50 [2]: > 120 µM (not active)
EC50 [3]: 28.2 µM (active)

FCCCOc1ccc(/C=N/OCc2ccc(Cl)cc2)cc1
IC50 [6]: > 100 µM (inactive)

CCOC(=O)c1ccc(-c2ccc(/C=N/NC(=O)CN(c3ccccc3Cl)S(C)(=O)=O)o2)cc1
EC50 [1]: 14.3 µM (active)
EC50 [2]: 28.6 µM (active)
EC50 [3]: 33.3 µM (active)
EC50 [13]: 29.4 µM (active)
EC50 [14]: 37.6 µM (active)

C#CCn1/c(=N/C(=O)c2cc(Cl)sc2Cl)sc2cc(S(N)(=O)=O)ccc21
EC50 [10]: > 150 µM (not active)
CC50 [4]: > 40 µM (active)
EC50 [11]: 14 µM (active)
EC50 [12]: > 150 µM (not active)

O=C(c1cccc(F)c1)N1CC[C@H]2[C@H](CO)Nc3ccc(C#Cc4cccc(F)c4)cc3[C@H]21
AC50 [15]: 4.2 µM (active)

CCCC(=O)N1CC2(C1)CN(Cc1ccccc1F)[C@H](CO)c1c2c2ccc(OC)cc2n1C
AC50 [15]: 6.14 µM (active)

N#C[C@@H]1[C@H](c2ccccc2C2=CCCCC2)[C@@H](CO)N1S(=O)(=O)c1ccccc1
AC50 [15]: 15 µM (active)

C/C=C/c1ccc([C@@H]2[C@H](CO)N(CC3CCCC3)C23CN(C(=O)CC2CC2)C3)cc1
AC50 [15]: 5.78 µM (active)

CCC(=O)Nc1ccc2c(c1)C(=O)N(C)C[C@H](OC)[C@H](C)CN(Cc1cccc(F)c1)[C@@H](C)CO2
AC50 [15]: 11.3 µM (active)

CC1(C)CC(=O)c2sc(N3CCCCC3)nc2C1
EC50 [1]: 8.85 µM (active)
EC50 [2]: 68.7 µM (active)
EC50 [3]: 74 µM (active)

Cc1cc(C)n(CC(O)COc2ccc3ccccc3c2)n1 (configuration not stated)
EC50 [1]: 16.4 µM (active)
EC50 [2]: 16.5 µM (active)
EC50 [3]: 31.3 µM (active)

Cc1c(-c2ccc(-c3ccccc3F)cc2)nc2ccc(F)cc2c1C(=O)O [BREQUINAR SODIUM]
GI50 ([7]; Mus musculus, P388): 0.359 µM (active)
GI50 ([8]; Mus musculus, P388/ADR): 0.197 µM (active)
GI50 [9]: 0.0902 µM (active)

CC[C@](C)(O)C(=O)O[C@H]1C(=O)O[C@@H]2C[C@H]3C(C)=CC(=O)[C@@H](O)[C@]3(C)[C@H]3[C@@]4(O)OC[C@]32[C@@H]1[C@@H](C)[C@H]4O [GLAUCARUBINONE]
GI50 ([7]; Mus musculus, P388): 0.0676 µM (active)
GI50 ([8]; Mus musculus, P388/ADR): 0.664 µM (active)
GI50 [9]: 0.05 µM (active)
